Results reported in article PMC9856672, “SGC-CAMKK2-1: A Chemical Probe for CAMKK2” (Cells, 2023).

Legend:
CDKL2 = target: T1, CDKL2 (Homo sapiens, UniProt Q92772); assay: KINOMEscan 1 μM, CDKL2; format: binding; conditions: 1000 nM; Entrez CDKL2; read-out: Percent Control
T1 construct: purchased Eurofins DiscoverX KINOMEscan
From the text: (§1) Supplement cells-12-00287-s001.zip/File S2. KinomeScan data for the CAMKK2 probe and negative control.xlsx, sheet "SGC-CAMKK2-1" | column: Percent Control

[1] = target: T2, ABL1(H396P)-phosphorylated (Homo sapiens, UniProt P00519, H396P); assay: KINOMEscan 1 μM, ABL1(H396P)-phosphorylated; format: binding; conditions: 1000 nM; Entrez ABL1; read-out: Percent Control
T2 construct: purchased Eurofins DiscoverX KINOMEscan
From the text: as §1

SRC = target: T3, SRC (Homo sapiens, UniProt P12931); assay: KINOMEscan 1 μM, SRC; format: binding; conditions: 1000 nM; Entrez SRC; read-out: Percent Control
T3 construct: purchased Eurofins DiscoverX KINOMEscan
From the text: as §1

CIT = target: T4, CIT (Homo sapiens, UniProt O14578); assay: KINOMEscan 1 μM, CIT; format: binding; conditions: 1000 nM; Entrez CIT; read-out: Percent Control
T4 construct: purchased Eurofins DiscoverX KINOMEscan
From the text: as §1

SRPK1 = target: T5, SRPK1 (Homo sapiens, UniProt Q96SB4); assay: KINOMEscan 1 μM, SRPK1; format: binding; conditions: 1000 nM; Entrez SRPK1; read-out: Percent Control
T5 construct: purchased Eurofins DiscoverX KINOMEscan
From the text: as §1

MERTK = target: T6, MERTK (Homo sapiens, UniProt Q12866); assay: KINOMEscan 1 μM, MERTK; format: binding; conditions: 1000 nM; Entrez MERTK; read-out: Percent Control
T6 construct: purchased Eurofins DiscoverX KINOMEscan
From the text: as §1

FGFR2 = target: T7, FGFR2 (Homo sapiens, UniProt P21802); assay: KINOMEscan 1 μM, FGFR2; format: binding; conditions: 1000 nM; Entrez FGFR2; read-out: Percent Control
T7 construct: purchased Eurofins DiscoverX KINOMEscan
From the text: as §1

HIPK3 = target: T8, HIPK3 (Homo sapiens, UniProt Q9H422); assay: KINOMEscan 1 μM, HIPK3; format: binding; conditions: 1000 nM; Entrez HIPK3; read-out: Percent Control
T8 construct: purchased Eurofins DiscoverX KINOMEscan
From the text: as §1

ERK4 = target: T9, ERK4 (Homo sapiens, UniProt P31152); assay: KINOMEscan 1 μM, ERK4; format: binding; conditions: 1000 nM; Entrez MAPK4; read-out: Percent Control
T9 construct: purchased Eurofins DiscoverX KINOMEscan
From the text: as §1

CAMK2G = target: T10, CAMK2G (Homo sapiens, UniProt Q13555); assay: KINOMEscan 1 μM, CAMK2G; format: binding; conditions: 1000 nM; Entrez CAMK2G; read-out: Percent Control
T10 construct: purchased Eurofins DiscoverX KINOMEscan
From the text: as §1

DCAMKL1 = target: T11, DCAMKL1 (Homo sapiens, UniProt O15075); assay: KINOMEscan 1 μM, DCAMKL1; format: binding; conditions: 1000 nM; Entrez DCLK1; read-out: Percent Control
T11 construct: purchased Eurofins DiscoverX KINOMEscan
From the text: as §1

CAMK2A = target: T12, CAMK2A (Homo sapiens, UniProt Q9UQM7); assay: KINOMEscan at 1 μM, CAMK2A; format: binding; conditions: 1000 nM, read-out: Percent Control
T12 construct: purchased Eurofins DiscoverX KINOMEscan
From the text: (§2) Supplement cells-12-00287-s001.zip/File S2. KinomeScan data for the CAMKK2 probe and negative control.xlsx, sheet "SGC-CAMKK2-1N" | column: Percent Control

ICK = target: T13, ICK (Homo sapiens, UniProt Q9UPZ9); assay: KINOMEscan at 1 μM, ICK; format: binding; conditions: 1000 nM, read-out: Percent Control
T13 construct: purchased Eurofins DiscoverX KINOMEscan
From the text: as §2

KIT(L576P) = target: T14, KIT(L576P) (Homo sapiens, UniProt P10721, L576P); assay: KINOMEscan at 1 μM, KIT(L576P); format: binding; conditions: 1000 nM, read-out: Percent Control
T14 construct: purchased Eurofins DiscoverX KINOMEscan
From the text: as §2

MAP4K4 = target: T15, MAP4K4 (Homo sapiens, UniProt O95819); assay: KINOMEscan at 1 μM, MAP4K4; format: binding; conditions: 1000 nM, read-out: Percent Control
T15 construct: purchased Eurofins DiscoverX KINOMEscan
From the text: as §2

CLK2 = target: T16, CLK2 (Homo sapiens, UniProt P49760); assay: KINOMEscan at 1 μM, CLK2; format: binding; conditions: 1000 nM, read-out: Percent Control
T16 construct: purchased Eurofins DiscoverX KINOMEscan
From the text: as §2

NEK6 = target: T17, NEK6 (Homo sapiens, UniProt Q9HC98); assay: KINOMEscan binding assay at 1 μM, NEK6; conditions: Compound Concentration 1000 nM; read-out: Percent Control
T17 construct: purchased Eurofins DiscoverX KINOMEscan
From the text: as §2

[2] = target: T18, RPS6KA5(Kin.Dom.1-N-terminal) (Homo sapiens, UniProt O75582); assay: KINOMEscan binding assay at 1 μM, RPS6KA5(Kin.Dom.1-N-terminal); conditions: Compound Concentration 1000 nM; read-out: Percent Control
T18 construct: RPS6KA5(Kin.Dom.1-N-terminal); purchased Eurofins DiscoverX KINOMEscan
From the text: as §2

KIT(V559D) = target: T19, KIT(V559D) (Homo sapiens, UniProt P10721, V559D); assay: KINOMEscan at 1 μM, KIT(V559D); format: binding; conditions: 1000 nM, read-out: Percent Control
T19 construct: purchased Eurofins DiscoverX KINOMEscan
From the text: as §2

TGFBR1 = target: T20, TGFBR1 (Homo sapiens, UniProt P36897); assay: KINOMEscan at 1 μM, TGFBR1; format: binding; conditions: 1000 nM, read-out: Percent Control
T20 construct: purchased Eurofins DiscoverX KINOMEscan
From the text: as §2

LIMK1 = target: T21, LIMK1 (Homo sapiens, UniProt P53667); assay: KINOMEscan at 1 μM, LIMK1; format: binding; conditions: 1000 nM, read-out: Percent Control
T21 construct: purchased Eurofins DiscoverX KINOMEscan
From the text: as §2

ERK5 = target: T22, ERK5 (Homo sapiens, UniProt Q13164); assay: KINOMEscan at 1 μM, ERK5; format: binding; conditions: 1000 nM, read-out: Percent Control
T22 construct: purchased Eurofins DiscoverX KINOMEscan
From the text: as §2

RIOK1 = target: T23, RIOK1 (Homo sapiens, UniProt Q9BRS2); assay: KINOMEscan at 1 μM, RIOK1; format: binding; conditions: 1000 nM, read-out: Percent Control
T23 construct: purchased Eurofins DiscoverX KINOMEscan
From the text: as §2

BLK = target: T24, BLK (Homo sapiens, UniProt P51451); assay: KINOMEscan at 1 μM, BLK; format: binding; conditions: 1000 nM, read-out: Percent Control
T24 construct: purchased Eurofins DiscoverX KINOMEscan
From the text: as §2

[3] = target: T25, ABL1(T315I)-phosphorylated (Homo sapiens, UniProt P00519, T315I); assay: KINOMEscan at 1 μM, ABL1(T315I)-phosphorylated; format: binding; conditions: 1000 nM, read-out: Percent Control
T25 construct: purchased Eurofins DiscoverX KINOMEscan
From the text: as §2

PRKCI = target: T26, PRKCI (Homo sapiens, UniProt P41743); assay: KINOMEscan at 1 μM, PRKCI; format: binding; conditions: 1000 nM, read-out: Percent Control
T26 construct: purchased Eurofins DiscoverX KINOMEscan
From the text: as §2

PCTK3 = target: T27, PCTK3 (Homo sapiens, UniProt Q07002); assay: KINOMEscan binding assay at 1 μM, PCTK3; conditions: Compound Concentration 1000 nM; read-out: Percent Control
T27 construct: purchased Eurofins DiscoverX KINOMEscan
From the text: as §2

TAOK3 = target: T28, TAOK3 (Homo sapiens, UniProt Q9H2K8); assay: KINOMEscan at 1 μM, TAOK3; format: binding; conditions: 1000 nM, read-out: Percent Control
T28 construct: purchased Eurofins DiscoverX KINOMEscan
From the text: as §2

PIK3CA(E542K) = target: T29, PIK3CA(E542K) (Homo sapiens, UniProt P42336, E542K); assay: KINOMEscan at 1 μM, PIK3CA(E542K); format: binding; conditions: 1000 nM, read-out: Percent Control
T29 construct: purchased Eurofins DiscoverX KINOMEscan
From the text: as §2

CDK8 = target: T30, CDK8 (Homo sapiens, UniProt P49336); assay: KINOMEscan at 1 μM, CDK8; format: binding; conditions: 1000 nM, read-out: Percent Control
T30 construct: purchased Eurofins DiscoverX KINOMEscan
From the text: as §2

IRAK4 = target: T31, IRAK4 (Homo sapiens, UniProt Q9NWZ3); assay: KINOMEscan at 1 μM, IRAK4; format: binding; conditions: 1000 nM, read-out: Percent Control
T31 construct: purchased Eurofins DiscoverX KINOMEscan
From the text: as §2

TRKA = target: T32, TRKA (Homo sapiens, UniProt P04629); assay: KINOMEscan at 1 μM, TRKA; format: binding; conditions: 1000 nM, read-out: Percent Control
T32 construct: purchased Eurofins DiscoverX KINOMEscan
From the text: as §2

PAK7 = target: T33, PAK7 (Homo sapiens, UniProt Q9P286); assay: KINOMEscan at 1 μM, PAK7; format: binding; conditions: 1000 nM, read-out: Percent Control
T33 construct: purchased Eurofins DiscoverX KINOMEscan
From the text: as §2

LRRK2(G2019S) = target: T34, LRRK2(G2019S) (Homo sapiens, UniProt Q5S007, G2019S); assay: KINOMEscan at 1 μM, LRRK2(G2019S); format: binding; conditions: 1000 nM, read-out: Percent Control
T34 construct: purchased Eurofins DiscoverX KINOMEscan
From the text: as §2

T3 sequence (P12931 whole entry): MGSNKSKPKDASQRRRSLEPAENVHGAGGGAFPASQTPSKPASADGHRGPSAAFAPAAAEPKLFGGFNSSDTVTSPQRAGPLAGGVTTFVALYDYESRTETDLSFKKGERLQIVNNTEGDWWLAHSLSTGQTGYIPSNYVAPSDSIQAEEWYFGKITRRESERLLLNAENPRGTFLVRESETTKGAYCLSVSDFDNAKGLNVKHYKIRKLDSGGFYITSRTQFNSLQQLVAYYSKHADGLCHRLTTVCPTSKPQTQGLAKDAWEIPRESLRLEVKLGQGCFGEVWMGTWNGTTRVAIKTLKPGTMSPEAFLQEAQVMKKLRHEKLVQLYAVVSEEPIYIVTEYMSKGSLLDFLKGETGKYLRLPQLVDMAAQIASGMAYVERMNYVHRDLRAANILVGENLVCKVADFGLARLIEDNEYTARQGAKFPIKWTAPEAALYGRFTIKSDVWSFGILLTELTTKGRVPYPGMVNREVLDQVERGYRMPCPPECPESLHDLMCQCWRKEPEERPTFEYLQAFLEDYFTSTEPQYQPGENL
T29 sequence (P42336 whole entry E542K): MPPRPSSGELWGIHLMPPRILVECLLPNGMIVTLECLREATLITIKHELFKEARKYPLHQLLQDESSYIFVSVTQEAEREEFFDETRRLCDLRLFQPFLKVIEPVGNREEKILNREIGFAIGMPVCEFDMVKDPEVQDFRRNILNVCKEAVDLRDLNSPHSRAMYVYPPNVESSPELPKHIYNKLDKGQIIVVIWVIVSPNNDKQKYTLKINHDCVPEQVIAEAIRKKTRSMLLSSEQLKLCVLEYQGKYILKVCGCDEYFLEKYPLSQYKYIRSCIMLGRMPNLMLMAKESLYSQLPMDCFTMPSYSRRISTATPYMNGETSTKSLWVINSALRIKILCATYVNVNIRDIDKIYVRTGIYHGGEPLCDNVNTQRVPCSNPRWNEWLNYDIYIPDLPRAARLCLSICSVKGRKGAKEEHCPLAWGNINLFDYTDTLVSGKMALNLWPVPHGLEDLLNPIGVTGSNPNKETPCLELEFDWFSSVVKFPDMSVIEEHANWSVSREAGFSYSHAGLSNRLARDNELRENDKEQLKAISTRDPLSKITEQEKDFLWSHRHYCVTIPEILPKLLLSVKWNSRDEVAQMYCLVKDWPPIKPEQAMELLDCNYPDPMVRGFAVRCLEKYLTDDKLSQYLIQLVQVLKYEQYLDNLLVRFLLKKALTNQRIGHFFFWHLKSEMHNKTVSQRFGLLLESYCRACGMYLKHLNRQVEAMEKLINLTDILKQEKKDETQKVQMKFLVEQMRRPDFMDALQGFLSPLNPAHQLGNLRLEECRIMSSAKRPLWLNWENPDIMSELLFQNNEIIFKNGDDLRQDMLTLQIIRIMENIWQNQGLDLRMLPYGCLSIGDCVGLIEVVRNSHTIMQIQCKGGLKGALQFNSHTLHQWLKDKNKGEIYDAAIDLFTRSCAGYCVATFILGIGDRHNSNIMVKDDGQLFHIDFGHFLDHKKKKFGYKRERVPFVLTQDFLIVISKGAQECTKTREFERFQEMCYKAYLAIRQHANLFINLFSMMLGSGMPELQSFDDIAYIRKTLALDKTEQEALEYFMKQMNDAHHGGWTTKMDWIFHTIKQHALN
T13 sequence (Q9UPZ9 whole entry): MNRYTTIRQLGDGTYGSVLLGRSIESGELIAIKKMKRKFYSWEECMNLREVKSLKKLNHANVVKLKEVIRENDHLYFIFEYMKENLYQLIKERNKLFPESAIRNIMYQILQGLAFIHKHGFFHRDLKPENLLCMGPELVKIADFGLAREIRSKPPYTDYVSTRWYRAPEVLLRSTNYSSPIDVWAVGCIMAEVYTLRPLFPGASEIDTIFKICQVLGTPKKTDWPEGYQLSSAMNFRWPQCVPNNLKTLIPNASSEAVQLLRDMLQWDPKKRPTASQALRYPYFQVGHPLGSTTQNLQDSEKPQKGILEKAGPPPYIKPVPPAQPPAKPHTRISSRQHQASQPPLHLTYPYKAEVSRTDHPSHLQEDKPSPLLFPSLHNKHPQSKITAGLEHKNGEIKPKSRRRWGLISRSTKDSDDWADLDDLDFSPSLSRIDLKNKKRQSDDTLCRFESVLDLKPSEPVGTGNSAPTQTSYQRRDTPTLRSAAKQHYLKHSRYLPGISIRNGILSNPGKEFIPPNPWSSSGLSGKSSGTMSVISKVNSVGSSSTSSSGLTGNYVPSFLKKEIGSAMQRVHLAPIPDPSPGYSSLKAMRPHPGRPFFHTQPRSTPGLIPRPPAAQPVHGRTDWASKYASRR
T14 sequence (P10721 26-976 L576P): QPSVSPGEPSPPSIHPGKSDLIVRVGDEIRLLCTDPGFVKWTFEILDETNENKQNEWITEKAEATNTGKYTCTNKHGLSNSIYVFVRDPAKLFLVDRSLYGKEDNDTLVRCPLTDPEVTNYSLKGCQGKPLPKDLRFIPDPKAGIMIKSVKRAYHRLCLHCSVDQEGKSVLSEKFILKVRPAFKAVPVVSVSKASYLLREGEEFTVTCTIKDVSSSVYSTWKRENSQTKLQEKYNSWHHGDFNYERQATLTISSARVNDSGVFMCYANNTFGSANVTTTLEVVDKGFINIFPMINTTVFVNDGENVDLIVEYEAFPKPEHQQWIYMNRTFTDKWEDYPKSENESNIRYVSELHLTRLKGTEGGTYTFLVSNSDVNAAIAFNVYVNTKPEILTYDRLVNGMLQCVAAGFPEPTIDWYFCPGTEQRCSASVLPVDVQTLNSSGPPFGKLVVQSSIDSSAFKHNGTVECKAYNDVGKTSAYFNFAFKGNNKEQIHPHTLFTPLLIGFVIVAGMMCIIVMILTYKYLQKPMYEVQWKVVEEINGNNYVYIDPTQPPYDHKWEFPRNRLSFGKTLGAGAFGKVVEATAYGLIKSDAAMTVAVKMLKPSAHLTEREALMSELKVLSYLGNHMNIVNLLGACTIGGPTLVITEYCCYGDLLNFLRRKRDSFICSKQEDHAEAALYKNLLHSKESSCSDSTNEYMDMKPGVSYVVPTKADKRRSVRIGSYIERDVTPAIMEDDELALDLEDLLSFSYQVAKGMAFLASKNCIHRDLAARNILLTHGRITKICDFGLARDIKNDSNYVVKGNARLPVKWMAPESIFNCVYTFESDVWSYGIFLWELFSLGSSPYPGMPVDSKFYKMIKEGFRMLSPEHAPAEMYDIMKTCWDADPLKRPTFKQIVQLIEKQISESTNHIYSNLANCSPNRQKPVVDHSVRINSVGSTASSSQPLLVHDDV
T10 sequence (Q13555 whole entry): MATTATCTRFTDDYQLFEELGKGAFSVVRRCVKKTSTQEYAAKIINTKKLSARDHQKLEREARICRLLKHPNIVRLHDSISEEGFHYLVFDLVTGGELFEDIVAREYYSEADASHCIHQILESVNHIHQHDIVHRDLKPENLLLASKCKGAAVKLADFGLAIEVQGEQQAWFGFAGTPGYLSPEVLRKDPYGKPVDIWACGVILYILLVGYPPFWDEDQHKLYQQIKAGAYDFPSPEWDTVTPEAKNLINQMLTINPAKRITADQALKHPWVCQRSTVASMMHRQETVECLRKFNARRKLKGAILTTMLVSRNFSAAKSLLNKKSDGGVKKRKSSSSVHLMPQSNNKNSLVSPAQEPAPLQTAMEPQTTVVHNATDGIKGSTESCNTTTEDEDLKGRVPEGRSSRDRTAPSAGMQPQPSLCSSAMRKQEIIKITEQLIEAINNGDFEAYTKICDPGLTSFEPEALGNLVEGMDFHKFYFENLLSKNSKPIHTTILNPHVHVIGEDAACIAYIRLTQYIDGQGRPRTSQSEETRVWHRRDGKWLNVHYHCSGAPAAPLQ
T21 sequence (P53667 whole entry): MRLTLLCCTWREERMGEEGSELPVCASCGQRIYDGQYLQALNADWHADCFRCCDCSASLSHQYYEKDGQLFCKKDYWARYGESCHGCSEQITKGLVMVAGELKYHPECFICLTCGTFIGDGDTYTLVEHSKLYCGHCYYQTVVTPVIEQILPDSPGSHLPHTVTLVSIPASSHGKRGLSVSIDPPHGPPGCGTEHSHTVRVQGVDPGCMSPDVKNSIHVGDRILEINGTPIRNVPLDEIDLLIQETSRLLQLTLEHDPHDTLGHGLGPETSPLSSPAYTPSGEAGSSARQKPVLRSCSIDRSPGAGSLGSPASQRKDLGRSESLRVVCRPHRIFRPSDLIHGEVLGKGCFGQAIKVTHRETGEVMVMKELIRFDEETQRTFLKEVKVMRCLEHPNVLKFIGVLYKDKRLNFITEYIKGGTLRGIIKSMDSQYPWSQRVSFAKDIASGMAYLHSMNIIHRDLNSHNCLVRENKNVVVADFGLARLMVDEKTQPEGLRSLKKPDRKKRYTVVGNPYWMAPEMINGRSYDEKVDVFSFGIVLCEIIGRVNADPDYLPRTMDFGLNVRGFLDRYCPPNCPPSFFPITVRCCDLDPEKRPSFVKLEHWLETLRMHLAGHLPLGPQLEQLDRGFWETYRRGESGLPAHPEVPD
T1 sequence (Q92772 whole entry): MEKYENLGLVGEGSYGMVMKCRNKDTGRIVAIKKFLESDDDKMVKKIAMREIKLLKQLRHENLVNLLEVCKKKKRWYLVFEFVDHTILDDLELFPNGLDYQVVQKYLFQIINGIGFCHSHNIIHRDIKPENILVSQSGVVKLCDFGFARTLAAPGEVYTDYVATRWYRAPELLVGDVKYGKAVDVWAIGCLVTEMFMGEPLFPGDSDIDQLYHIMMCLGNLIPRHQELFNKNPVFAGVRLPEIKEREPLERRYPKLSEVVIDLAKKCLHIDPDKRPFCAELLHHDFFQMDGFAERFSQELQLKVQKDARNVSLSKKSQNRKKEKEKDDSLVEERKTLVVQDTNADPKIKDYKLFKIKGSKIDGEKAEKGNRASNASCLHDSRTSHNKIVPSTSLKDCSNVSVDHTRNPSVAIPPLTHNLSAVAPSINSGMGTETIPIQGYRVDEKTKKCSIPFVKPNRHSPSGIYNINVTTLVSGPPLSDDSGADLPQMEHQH
T19 sequence (P10721 26-976 V559D): as the sequence (P10721 26-976 L576P) above, with V534D, P551L counted along it

With Cc1cccc(-c2cnc3occ(-c4ccc(C(=O)O)c(C5CCCC5)c4)c3c2)c1 [SGC-CAMKK2-1 (YL-36)] the remaining binding at 1 µM (CDKL2) was 96%, the remaining binding at 1 µM [1] was 77% and the remaining binding at 1 µM (SRC) was 96%. The remaining binding at 1 µM (CIT) was 100%, the remaining binding at 1 µM (SRPK1) was 80% and the remaining binding at 1 µM (MERTK) was 100%. The remaining binding at 1 µM (FGFR2) was 88%, the remaining binding at 1 µM (HIPK3) was 100% and the remaining binding at 1 µM (ERK4) was 100%. The remaining binding at 1 µM (CAMK2G) was 100% and the remaining binding at 1 µM (DCAMKL1) was 100%.
For O=C(O)c1ccc(-c2coc3ncc(-c4ccccc4)cc23)cc1Cl [SGC-CAMKK2-1N (UNC-YL-83)], the remaining binding at 1 µM (CAMK2A) was 65%, the remaining binding at 1 µM (ICK) was 71% and the remaining binding at 1 µM (KIT(L576P)) was 66%. For the same compound, the remaining binding at 1 µM (MAP4K4) was 94%, the remaining binding at 1 µM (CLK2) was 62% and the remaining binding at 1 µM (NEK6) was 100%. It also gave a remaining binding at 1 µM [2] of 100%, a remaining binding at 1 µM (KIT(V559D)) of 70% and a remaining binding at 1 µM (TGFBR1) of 80%. For the same compound, the remaining binding at 1 µM (LIMK1) was 88%, the remaining binding at 1 µM (ERK5) was 81% and the remaining binding at 1 µM (RIOK1) was 91%. The remaining binding at 1 µM (BLK) was 87%, the remaining binding at 1 µM [3] was 84% and the remaining binding at 1 µM (PRKCI) was 79%. It also gave a remaining binding at 1 µM (PCTK3) of 100%, a remaining binding at 1 µM (TAOK3) of 79% and a remaining binding at 1 µM (PIK3CA(E542K)) of 81%. For the same compound, the remaining binding at 1 µM (CDK8) was 100%, the remaining binding at 1 µM (IRAK4) was 72% and the remaining binding at 1 µM (TRKA) was 38%. For the same compound, the remaining binding at 1 µM (PAK7) was 84% and the remaining binding at 1 µM (LRRK2(G2019S)) was 90%.
